Biological target: T1, SIRT1 (Homo sapiens, UniProt Q96EB6)
T1 sequence (Q96EB6 1-747): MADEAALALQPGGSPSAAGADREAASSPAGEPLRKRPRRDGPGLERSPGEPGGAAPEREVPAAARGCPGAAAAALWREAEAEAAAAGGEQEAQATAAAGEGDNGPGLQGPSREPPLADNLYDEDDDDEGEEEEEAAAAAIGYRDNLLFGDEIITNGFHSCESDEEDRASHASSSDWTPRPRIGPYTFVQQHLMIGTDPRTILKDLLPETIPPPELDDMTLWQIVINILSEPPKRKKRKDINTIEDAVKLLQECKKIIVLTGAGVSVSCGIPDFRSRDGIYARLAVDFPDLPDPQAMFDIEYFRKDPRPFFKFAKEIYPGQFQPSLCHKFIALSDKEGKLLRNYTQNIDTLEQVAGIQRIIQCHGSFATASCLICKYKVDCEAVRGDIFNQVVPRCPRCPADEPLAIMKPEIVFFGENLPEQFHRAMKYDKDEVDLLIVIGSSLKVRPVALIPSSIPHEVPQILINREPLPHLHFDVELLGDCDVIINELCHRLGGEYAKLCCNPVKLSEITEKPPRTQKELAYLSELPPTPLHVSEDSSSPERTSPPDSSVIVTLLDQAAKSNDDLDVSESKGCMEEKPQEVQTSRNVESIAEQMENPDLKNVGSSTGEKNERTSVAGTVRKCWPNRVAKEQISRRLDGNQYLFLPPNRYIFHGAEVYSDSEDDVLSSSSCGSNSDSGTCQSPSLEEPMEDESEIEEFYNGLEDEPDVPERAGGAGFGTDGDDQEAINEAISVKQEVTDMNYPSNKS
Assay: Mass spectrometry based assay to identify modulators of SIRT1 activity (deacetylation of p53-based acetylated peptide)
Assay type: biochemical
Settings: 10 nM SIRT1, 0.5 μM peptide substrate, 120 μM βNAD+, 25 minutes at 25° C.; for EC1.5 μM: SIRT1 activation

Row | SMILES | % Fold Act. (percent maximum fold activation) | EC1.5 μM
1 | Cn1cncc1-c1nc2c(NC(=O)c3cnccn3)cccc2c(=O)n1C [Compound 285] | B (Fold Activation<200%) | B (EC1.5 1-25 μM)
2 | Cn1c(-c2cccc(OC(F)(F)F)c2)nc2c(NC(=O)c3cscn3)cccc2c1=O [Compound 203] | B (Fold Activation<200%) | C (EC1.5>25 μM)
3 | CN1CCCCC1C(=O)Nc1cccc2c(=O)n(C)c(-c3cccc(C(F)(F)F)c3)nc12 (stereo not shown) [Compound 343] | B (Fold Activation<200%) | C (EC1.5>25 μM)
4 | Cn1c(-c2cccc(C(F)(F)F)c2)nc2c(NC(=O)c3ccccn3)cccc2c1=O [Compound 239, N-(3-methyl-4-oxo-2-(3-(trifluoromethyl)phenyl)-3,4-dihydroquinazolin-8-yl)picolinamide] | A (Fold activation>200%) | A (EC1.5<1.0 μM)
5 | Cn1c(-c2cccc(C(F)(F)F)c2)nc2c(C(=O)Nc3cccc(OC[C@H](O)CO)n3)cccc2c1=O [Compound 353] | A (Fold activation>200%) | A (EC1.5<1.0 μM)
6 | Cn1ccnc1C(=O)Nc1cccc2c(=O)cc(-c3cccc(C(F)(F)F)c3)[nH]c12 [Compound 420] | A (Fold activation>200%) | A (EC1.5<1.0 μM)
7 | Cn1c(-c2cccc(C(F)(F)F)c2)nc2c(NC(=O)c3cccc(N4CCOCC4)n3)cccc2c1=O [Compound 341] | A (Fold activation>200%) | A (EC1.5<1.0 μM)
8 | Cn1c(-c2cccc(OC(F)(F)F)c2)nc2c(C(=O)Nc3ccccn3)cccc2c1=O [Compound 207] | A (Fold activation>200%) | A (EC1.5<1.0 μM)
9 | Cn1nccc1-c1nc2c(C(=O)Nc3ccccn3)cccc2c(=O)n1C [Compound 264] | B (Fold Activation<200%) | C (EC1.5>25 μM)
10 | Cn1c(-c2cccc(C(F)(F)F)c2)nc2c(NC(=O)c3ncccn3)cccc2c1=O [Compound 249] | A (Fold activation>200%) | A (EC1.5<1.0 μM)
11 | Cn1c(-c2cccc(C(F)F)c2)nc2c(NC(=O)c3cnccn3)cccc2c1=O [Compound 310] | A (Fold activation>200%) | A (EC1.5<1.0 μM)
12 | Cn1c(-c2cccc(C(F)(F)F)c2)nc2c(NC(=O)c3cncc(N4CCOCC4)n3)cccc2c1=O [Compound 336] | A (Fold activation>200%) | A (EC1.5<1.0 μM)
13 | O=C(Nc1cccc2c(=O)cc(-c3cccc(C(F)(F)F)c3)[nH]c12)c1ccns1 [Compound 411] | A (Fold activation>200%) | A (EC1.5<1.0 μM)
14 | Cn1c(-c2cccc(C(F)(F)F)c2)nc2c(C(=O)Nc3ccnc(N4CCCC4)c3)cccc2c1=O [Compound 349] | A (Fold activation>200%) | A (EC1.5<1.0 μM)
15 | O=C(Nc1ccncc1)c1cccc2c(=O)cc(-c3cccc(C(F)(F)F)c3)[nH]c12 [Compound 402] | A (Fold activation>200%) | A (EC1.5<1.0 μM)
16 | O=C(Nc1cccc2c(=O)[nH]c(-c3ccccc3C(F)F)nc12)c1cnccn1 [Compound 329] | A (Fold activation>200%) | A (EC1.5<1.0 μM)
17 | Cn1c(-c2cccc(CN3CCCC3)c2)nc2c(C(=O)Nc3ccccn3)cccc2c1=O [Compound 276] | B (Fold Activation<200%) | B (EC1.5 1-25 μM)
18 | Cc1ncsc1-c1nc2c(NC(=O)c3cnccn3)cccc2c(=O)n1C [Compound 284] | A (Fold activation>200%) | B (EC1.5 1-25 μM)

Row | SMILES | % Fold Act. (percent maximum fold activation) | EC1.5 μM
19 | O=C(Nc1cccc2c(=O)[nH]c(-c3cccc(OC(F)F)c3)nc12)c1cnccn1 [Compound 316] | B (Fold Activation<200%) | C (EC1.5>25 μM)
20 | Cn1c(-c2cccc(C(F)(F)F)c2)nc2c(C(=O)Nc3cccc(OC[C@@H](O)CO)n3)cccc2c1=O [Compound 356] | A (Fold activation>200%) | A (EC1.5<1.0 μM)
21 | Cn1c(-c2cccc(C(F)(F)F)c2)nc2c(C(=O)Nc3nccs3)cccc2c1=O [Compound 205] | B (Fold Activation<200%) | B (EC1.5 1-25 μM)
22 | Cn1c(-c2cccc(C(F)(F)F)c2)nc2c(NC(=O)c3cccnc3)cccc2c1=O [Compound 240] | A (Fold activation>200%) | B (EC1.5 1-25 μM)
23 | Cc1cc(NC(=O)c2cccc3c(=O)n(C)c(-c4cccc(C(F)(F)F)c4)nc23)n(C)n1 [Compound 295] | B (Fold Activation<200%) | C (EC1.5>25 μM)
24 | Cn1cnc(C(=O)Nc2cccc3c(=O)n(C)c(-c4cccc(C(F)(F)F)c4)nc23)c1 [Compound 246] | A (Fold activation>200%) | A (EC1.5<1.0 μM)
25 | Cn1c(-c2ccccc2C(F)(F)F)nc2c(C(=O)Nc3ccccn3)cccc2c1=O [Compound 212, 3-methyl-4-oxo-N-(pyridin-2-yl)-2-(2-(trifluoromethyl)phenyl)-3,4-dihydroquinazoline-8-carboxamide] | A (Fold activation>200%) | B (EC1.5 1-25 μM)
26 | Cn1c(-c2cccc(C(F)(F)F)c2)nc2c(C(=O)Nc3cncc(CN4CCOCC4)c3)cccc2c1=O [Compound 300] | A (Fold activation>200%) | B (EC1.5 1-25 μM)
27 | O=C(Nc1cccc2c(=O)[nH]c(-c3cccc(C(F)(F)F)c3)nc12)c1cnccn1 [Compound 231] | B (Fold Activation<200%) | C (EC1.5>25 μM)
28 | CCn1c(-c2cccc(C(F)(F)F)c2)nc2c(C(=O)Nc3ccccn3)cccc2c1=O [Compound 269] | B (Fold Activation<200%) | B (EC1.5 1-25 μM)
29 | Cn1ccnc1-c1nc2c(C(=O)Nc3ccccn3)cccc2c(=O)n1C [Compound 227] | B (Fold Activation<200%) | C (EC1.5>25 μM)
30 | CCn1c(-c2cccc(C(F)(F)F)c2)nc2c(NC(=O)c3cnccn3)cccc2c1=O [Compound 232] | A (Fold activation>200%) | A (EC1.5<1.0 μM)
31 | O=C(Nc1ccccn1)c1cccc2c(=O)cc(-c3cccc(C(F)(F)F)c3)[nH]c12 [Compound 401, 4-oxo-N-(pyridin-2-yl)-2-(3-(trifluoromethyl)phenyl)-1,4-dihydroquinoline-8-carboxamide] | A (Fold activation>200%) | A (EC1.5<1.0 μM)
32 | Cn1c(-c2ccccc2OC(F)(F)F)nc2c(NC(=O)c3cnccn3)cccc2c1=O [Compound 274] | A (Fold activation>200%) | A (EC1.5<1.0 μM)
33 | Cn1c(-c2ccc(CN3CCCC3)cc2)nc2c(C(=O)Nc3ccccn3)cccc2c1=O [Compound 275, 3-methyl-4-oxo-N-(pyridin-2-yl)-2-(4-(pyrrolidin-1-ylmethyl)phenyl)-3,4-dihydroquinazoline-8-carboxamide] | B (Fold Activation<200%) | C (EC1.5>25 μM)
34 | Cn1c(-c2cccc(C(F)(F)F)c2)nc2c(C(=O)Nc3ccnc(N4CCOCC4)c3)cccc2c1=O [Compound 304] | A (Fold activation>200%) | A (EC1.5<1.0 μM)
35 | Cn1c(-c2cccc(C(F)(F)F)c2)nc2c(C(=O)Nc3cccc(N4CCOCC4)n3)cccc2c1=O [Compound 293] | A (Fold activation>200%) | A (EC1.5<1.0 μM)

Source: patent US9326986B2, “Quinazolinone, quinolone and related analogs as sirtuin modulators” (GLAXOSMITHKLINE LLC, priority 2008, dated 2016)
